Measurements as given in patent publication US6362369B1, “Phthalic acid diamide derivatives fluorine-containing aniline compounds as starting material, agricultural and horticultural insecticides, and a method for application of the insecticides” (Nihon Nohyaku Co., Ltd., priority 1997, dated 2002).

Columns and labels:
Format in all cases: in vivo
[1] = test system: rice leafroller (Cnaphalocrocis medinalis); experiment: Insecticidal effect on rice leafroller (Test Example 3); conditions: 500 ppm; rice lamina immersed; third-instar larvae of rice leafroller; four days after inoculation; 25° C., humidity 70%
In short: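 Insecticidal effect is judged by a predefined criterion from dead/alive counts four days after infesting air-dried lamina with third-instar larvae, kept on moistened filter paper at 25° C, 70% humidity.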

[2] = test system: common cutworm (Spodoptera Litura); experiment: Insecticidal effect on common cutworm (Test Example 2); conditions: 500 ppm; cabbage leaf immersed; second-instar larvae of common cutworm; eight days after inoculation; 25° C.
In short: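 Mortality was scored 8 days post-inoculation, using three groups of 10 second-instar larvae kept at 25 °C in closed 9 cm dishes on air-dried treated material. The insecticidal effect was graded from calculated mortality by a set criterion.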

[3] = test system: diamondback moth (Plutella xylostella); experiment: Insecticidal effect on diamondback moth (Test Example 1); conditions: diamondback moth; judged by the mortality criterion of Test Example 1
In short: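 Triplicate groups of 10 insects: eggs laid on Chinese cabbage seedling by adults, seedling immersed then air-dried, kept at 25° C. Day-6 hatch counts gave mortality, rated by criterion.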

Row | SMILES | Insecticidal effect, Test Example 3 [1] | Insecticidal effect, Test Example 2 [2] | Insecticidal effect, Test Example 1 [3]
1 | Cc1cc(C(F)(F)C(F)(F)F)ccc1NC(=O)c1cccc(Cl)c1C(=O)NC(C)C [compound 128] | A (100) | D (79-50) | A (100)
2 | Cc1cc(OC(F)(F)C(Cl)(Cl)Cl)ccc1NC(=O)c1cccc(Cl)c1C(=O)NC(C)C [compound 129] | A (100) | A (100) | A (100)
3 | Cc1cc(C(F)(F)C(F)(F)C(F)(F)F)ccc1NC(=O)c1cccc(Cl)c1C(=O)NC(C)C [compound 130] | A (100) | A (100) | A (100)
4 | Cc1cc(C(F)(F)C(F)(F)C(F)(F)C(F)(F)F)ccc1NC(=O)c1cccc(Cl)c1C(=O)NC(C)C [compound 132] | A (100) | A (100) | A (100)
5 | Cc1cc(C(F)(F)C(F)(F)C(F)(F)C(F)(F)C(F)(F)C(F)(F)F)ccc1NC(=O)c1cccc(Cl)c1C(=O)NC(C)C [compound 133] | A (100) | A (100) | A (100)
6 | CC(C)NC(=O)c1c(Cl)cccc1C(=O)Nc1ccc(OC(F)(F)F)cc1Cl [compound 135] | A (100) | A (100) | A (100)
7 | CC(C)NC(=O)c1c(Cl)cccc1C(=O)Nc1ccc(OC(F)(F)F)cc1Br [compound 136] | A (100) | A (100) | A (100)
8 | Cc1cc(OC(F)F)ccc1NC(=O)c1cccc(Cl)c1C(=O)NC(C)C [compound 138] | A (100) | A (100) | A (100)
9 | Cc1cc(OC(F)(F)F)ccc1NC(=O)c1cccc(Cl)c1C(=O)NC(C)C [compound 139] | A (100) | A (100) | A (100)
10 | Cc1cc(OC(F)(F)Br)ccc1NC(=O)c1cccc(Cl)c1C(=O)NC(C)C [compound 140] | A (100) | A (100) | A (100)
11 | Cc1c(NC(=O)c2cccc(Cl)c2C(=O)NC(C)C)cccc1OC(F)(F)C(F)Cl (stereo not drawn) [compound 142] | B (99-90) | A (100) | A (100)
12 | Cc1cc(OC(F)(F)C(F)Cl)ccc1NC(=O)c1cccc(Cl)c1C(=O)NC(C)C (stereo not drawn) [compound 143] | A (100) | A (100) | A (100)
13 | Cc1cc(OC(F)(F)C(F)(F)Br)ccc1NC(=O)c1cccc(Cl)c1C(=O)NC(C)C [compound 144] | A (100) | A (100) | A (100)
14 | Cc1cc(OC(F)(F)C(F)(Cl)Cl)ccc1NC(=O)c1cccc(Cl)c1C(=O)NC(C)C [compound 145] | A (100) | A (100) | A (100)
15 | Cc1cc(OC(F)(F)C(F)C(F)(F)F)ccc1NC(=O)c1cccc(Cl)c1C(=O)NC(C)C (stereo not drawn) [compound 146] | A (100) | A (100) | A (100)
16 | Cc1cc(OC(F)(F)C(F)(Br)C(F)(F)F)ccc1NC(=O)c1cccc(Cl)c1C(=O)NC(C)C (stereo not drawn) [compound 148] | A (100) | A (100) | A (100)
17 | Cc1cc(OC(F)(F)C(F)OC(F)(F)F)ccc1NC(=O)c1cccc(Cl)c1C(=O)NC(C)C (stereo not drawn) [compound 149] | A (100) | A (100) | A (100)
18 | Cc1cc(OC(F)F)c(Cl)cc1NC(=O)c1cccc(Cl)c1C(=O)NC(C)C [compound 150] | A (100) | A (100) | A (100)
19 | Cc1cc(OC(F)(F)C(F)F)c(Cl)cc1NC(=O)c1cccc(Cl)c1C(=O)NC(C)C [compound 152] | A (100) | A (100) | A (100)
20 | Cc1cc(Oc2c(F)c(F)c(F)c(F)c2F)ccc1NC(=O)c1cccc(Cl)c1C(=O)NC(C)C [compound 157] | A (100) | A (100) | A (100)
21 | Cc1cc(Oc2ccc(C(F)(F)F)cn2)ccc1NC(=O)c1cccc(Cl)c1C(=O)NC(C)C [compound 158] | A (100) | A (100) | A (100)

Row | SMILES | Insecticidal effect, Test Example 3 [1] | Insecticidal effect, Test Example 2 [2] | Insecticidal effect, Test Example 1 [3]
22 | Cc1cc(Oc2ncc(C(F)(F)F)cc2Cl)ccc1NC(=O)c1cccc(Cl)c1C(=O)NC(C)C [compound 159] | A (100) | A (100) | A (100)
23 | CCOP(=O)(OCC)c1ccc(NC(=O)c2cccc(Cl)c2C(=O)NC(C)C)c(C)c1 [compound 161] | A (100) | D (79-50) | A (100)
24 | CC(C)NC(=O)c1c(Cl)cccc1C(=O)Nc1ccc(OC(F)F)cc1C(F)(F)F [compound 163] | A (100) | A (100) | A (100)
25 | CC(C)NC(=O)c1c(Cl)cccc1C(=O)Nc1ccc2oc(C(F)(F)F)nc2c1 [compound 165] | C (89-80) | B (99-90) | A (100)
26 | CC(C)NC(=O)c1c(Cl)cccc1C(=O)Nc1ccc2c(c1)nc(C(F)(F)F)n2C [compound 167] | A (100) | A (100) | A (100)
27 | Cc1ccccc1NC(=O)c1ccc(Cl)cc1C(=O)NC(C)C [compound 170] | B (99-90) | D (79-50) | A (100)
28 | CC(C)NC(=O)c1cc(Cl)ccc1C(=O)Nc1ccc(OC(F)(F)F)cc1 [compound 172] | D (79-50) | A (100) | A (100)
29 | CC(C)NC(=O)c1cc(Cl)ccc1C(=O)Nc1ccc(Cl)cc1Cl [compound 173] | D (79-50) | D (79-50) | A (100)
30 | Cc1c(Cl)cccc1NC(=O)c1ccc(Cl)cc1C(=O)NC(C)C [compound 176] | A (100) | D (79-50) | A (100)
31 | Cc1cc(Cl)ccc1NC(=O)c1ccc(Cl)cc1C(=O)NC(C)C [compound 177] | A (100) | A (100) | A (100)
32 | Cc1cc(OC(F)F)ccc1NC(=O)c1ccc(Cl)cc1C(=O)NC(C)C [compound 180] | A (100) | A (100) | A (100)
33 | CC(C)NC(=O)c1cccc(Cl)c1C(=O)Nc1ccc(C(F)(C(F)(F)F)C(F)(F)F)cc1 [compound 198] | A (100) | C (89-80) | A (100)
34 | CC(C)NC(=O)c1cccc(Cl)c1C(=O)Nc1ccc(OC(F)(F)C(F)OC(F)(F)C(F)(F)C(F)(F)F)cc1 (stereo not drawn) [compound 201] | A (100) | B (99-90) | A (100)
35 | CC(C)NC(=O)c1cccc(Cl)c1C(=O)Nc1ccc(Cl)cc1F [compound 212] | A (100) | D (79-50) | A (100)
36 | Cc1cccc(NC(=O)c2c(Cl)cccc2C(=O)NC(C)C)c1C [compound 213] | A (100) | A (100) | A (100)
37 | Cc1cc(Cl)ccc1NC(=O)c1c(Cl)cccc1C(=O)NC(C)C [compound 214] | A (100) | A (100) | A (100)
38 | COc1ccc(NC(=O)c2c(Cl)cccc2C(=O)NC(C)C)c(C)c1C [compound 219] | A (100) | D (79-50) | A (100)
39 | Cc1cc(C(F)(F)F)ccc1NC(=O)c1c(Cl)cccc1C(=O)NC(C)C [compound 221] | A (100) | A (100) | A (100)
40 | Cc1cc(OC(F)(F)C(Cl)(Cl)Cl)ccc1NC(=O)c1c(Cl)cccc1C(=O)NC(C)C [compound 222] | A (100) | B (99-90) | A (100)
41 | Cc1cc(C(F)(F)C(F)(F)F)ccc1NC(=O)c1c(Cl)cccc1C(=O)NC(C)C [compound 223] | A (100) | A (100) | A (100)
